According to patent EP4806435A1, “DIHYDROCHROMENE-DERIVATIVE-CONTAINING THERAPEUTIC AGENT FOR CANCER” (Sumitomo Pharma Co., Ltd., priority 2023, dated 2025):

What was measured:
[1] = tested on: recurrent malignant glioma classified as WHO grade III or IV; assay: Phase 1 clinical trial: preliminary antitumor activity (RANO criteria); format: in vivo, human
Experimental: Each treatment cycle was defined as 28 days, during which safety and treatment response were evaluated. Administration to each subject was continued until unacceptable toxicity occurred, consent was withdrawn, the subject was lost to follow-up, or discontinuation was determined by the investigator and/or the sponsor.

[2] = tested on: U-87 cells (IDH1 wild-type); assay: Cytotoxicity, sphere culture with LDL, combination with ezetimibe (ATP); format: cell-based, human; conditions: 7 days, LDL 5 µg/mL
Experimental: U-87 cells were cultured for 7 days in sphere medium supplemented with LDL at a concentration of 5 µg/mL, with either ezetimibe (a cholesterol absorption inhibitor) added at 3.3, 10, or 30 µM, Compound 1 added at 1 µM, or a combination of both agents. Cell viability was calculated in the same manner as in Example 12, and the cytotoxic effects of each treatment were compared between single-agent and combination conditions.

SMILES: CC1(C)Oc2cc(Cl)ccc2[C@@H]2OCC3(CCN(CCn4ccnc4)CC3)C[C@H]21 [Compound 1, (4'aR,10'bR)-8'-chloro-1-[2-(1H-imidazol-1-yl)ethyl]-5',5'-dimethyl-4'a,10'b-dihydro-2'H,4'H,5'H-spiro[piperidine-4,3'-pyrano[3,2-c][1]benzopyran] diphosphate]
- stable disease ([1]; 180 mg QD and 240 mg QD): prolonged stable disease (SD) was observed
- discontinuation due to objective disease progression (RANO criteria) ([1]; 360 mg QD and 480 mg daily (240 mg BID)): most patients discontinued administration of Compound 1 within two months
- patients with preliminary antitumor activity (monotherapy) ([1]; Dose Escalation Part, as of September 2023): 4 patients
- tumor reduction (enhancing lesions, RANO criteria; reduction from baseline) ([1]; first patient with IDH-mutant WHO Grade III glioma, 20 mg QD): 22%
- time remained on study ([1]; patient with 22% tumor reduction): 15 months
- time remained on study ([1]; patient with 100% tumor reduction, as of September 2023): 13 months
- time remained on study ([1]; patient with 100% tumor reduction, cutoff April 21, 2024): 20 months
- response ([1]; patient with WHO grade III astrocytoma with IDH mutation, 120 mg, after more than one year of treatment): complete response (CR)
- tumor reduction (enhancing lesions, RANO criteria; reduction from baseline) ([1]; second patient with IDH-mutant WHO Grade III glioma, 120 mg QD): 100%
- cytotoxicity of the combination of Compound 1 and ezetimibe ([2]; Compound 1 1 µM + ezetimibe 3.3, 10, or 30 µM): potent cytotoxic effects
- cytotoxicity, single agent ([2]; Compound 1 at 1 µM): low cytotoxicity
